Test results from article PMC6017328, “Tetrasubstituted Imidazolium Salts as Potent Antiparasitic Agents against African and American Trypanosomiases” (Molecules : A Journal of Synthetic Chemistry and Natural …, 2018).
Where two headings read alike, the source gives them in different places.

Experiments:
[1] = cited from earlier work
[2] = tested on: Bloodstream form T. brucei (strain 221); test: T. brucei culturing and evaluation of trypanocidal activity (resazurin); assay type: cell-based; settings: Trypanosoma brucei; for EC50: concentration reducing parasite growth by 50%, triplicate; for EC90: concentration reducing parasite growth by 90%
Description: Bloodstream form T. brucei (strain 221) were grown as described previously. […] Logarithmically growing T. brucei were diluted to 2.5 × 10^4 mL^−1 and aliquoted into 96-well plates. Then, compounds were added at a range of concentrations and the plates incubated at 37 °C. Each compound was tested in triplicate. Resazurin was added after 48 h and the plates incubated for a further 16 h. The plates were then read in a Spectramax plate reader. Results were analyzed using GraphPad Prism.

[3] = tested on: T. cruzi epimastigotes (CL Brener stain); test: T. cruzi culturing and evaluation of trypanocidal activity (resazurin); assay type: cell-based; settings: Trypanosoma cruzi; for EC90: epimastigotes, CL Brener, growth reduced by 90%
Description: Activity was determined using 96-well plate assays. Cultures were diluted to 2.5 × 10^5 mL^−1, aliquoted in triplicate at a range of compound concentrations, and incubated for 4 days. Resazurin was added and the plates incubated for a further 3 days, then read in a Spectramax plate reader as outlined above.

L6 rat myoblast cells = test: Cytotoxic activity against rat skeletal myoblast L6 cells; assay type: cell-based; settings: 144 h; cytotoxicity, L6 rat myoblasts, 6 days
Description: Cytotoxicity was assessed using microtiter plates following a previously described protocol. Briefly, L6 cells were seeded at 1 × 10^4 mL^−1 in 200 μL of growth medium at different compound concentrations. The plates were incubated for 6 days at 37 °C and then 20 μL resazurin was added to each well. After a further 8 h incubation, fluorescence was determined using a Spectramax plate reader.

[4] = PAMPA-BBB assay (brain permeability); assay type: in vitro ADME, porcine; settings: for Papp: pig, PAMPA, PBS:EtOH 70:30, n=3 ± S.D. in Table S5, read-out: PAMPA-BBB permeability (Pe), experimental value; for CNS Prediction: predictive penetration in the CNS from PAMPA-BBB Pe
Description: The in vitro permeability (Pe) of the tested compounds and fourteen reference drugs through a lipid extract of porcine brain membrane was assessed by using a parallel artificial membrane permeation assay. Commercial drugs and the target compounds were tested using a mixture of phosphate-buffered saline (PBS): EtOH 70:30. The assay was validated by comparing the experimental permeability with the reported values of the reference drugs.

[5] = tested on: Bloodstream form T. brucei (strain 221); settings: read-out: EC50 (T. brucei); comparison drug; cited from earlier work
[6] = tested on: T. cruzi epimastigotes (CL Brener stain); settings: read-out: EC50 (T. cruzi); comparison drug; cited from earlier work

For `CN/C(=N/CCSCc1nc[nH]c1C)NC#N` [Cimetidine], the “PAMPA-BBB permeability (Pe), bibliography value” [1] is listed as 0.0 10-6 cm s-1.
`Cc1ccc(-n2c[n+](C(C)(C)C)c(Cc3ccccc3)c2-c2ccccc2)cc1` [Compound 1a] showed an EC50 [2] of 180 ± 10 nM, an EC90 [2] of 280 ± 70 nM and an EC50 [3] of 1850 ± 290 nM. The EC90 [3] was 3410 ± 140 nM, the EC50 (L6 rat myoblast cells) was 33900 ± 3300 nM and the Papp [4] was 4.2 ×10⁻⁶ cm/s. The “CNS Prediction” value [4] was “CNS+/-”.
`COc1ccc(-n2c[n+](-c3ccc(OC)cc3)c(Cc3ccccc3)c2-c2ccc(C)cc2)cc1` [Compound 1b] gave an EC50 [2] of 40 nM, an EC90 [2] of 50 nM and an EC50 [3] of 440 ± 10 nM. The EC90 [3] was 1290 ± 50 nM, the EC50 (L6 rat myoblast cells) was 4600 ± 380 nM and the Papp [4] was 4.9 ×10⁻⁶ cm/s. The “CNS Prediction” value [4] was “CNS+/-”.
Compound `COc1ccc(-n2c[n+](C(C)(C)C)c(Cc3ccc(C)cc3)c2-c2ccc(Cl)cc2)cc1` [Compound 1c] has an EC50 [2] of 180 ± 10 nM, an EC90 [2] of 200 ± 10 nM and an EC50 [3] of 1720 ± 390 nM. For the same compound, the EC90 [3] was 2980 ± 190 nM, the EC50 (L6 rat myoblast cells) was 9690 ± 580 nM and the Papp [4] was 2.6 ×10⁻⁶ cm/s. For the same compound, the “CNS Prediction” value [4] was “CNS+/-”.
For `Cc1ccc(-n2c[n+](-c3ccc4ccccc4c3)c(Cc3ccccc3)c2-c2ccc(Cl)cc2)cc1` [Compound 1d], the EC50 [2] was 70 nM, the EC90 [2] was 90 nM and the EC50 [3] was 540 ± 80 nM. It also gave an EC90 [3] of 1000 ± 40 nM, an EC50 (L6 rat myoblast cells) of 4090 ± 280 nM and a Papp [4] of 2.4 ×10⁻⁶ cm/s. For the same compound, the “CNS Prediction” value [4] was “CNS+/-”.
Work on `Cc1ccc(-n2c[n+](CC(=O)[O-])c(Cc3ccccc3)c2-c2ccccc2)cc1` [Compound 1e] yielded an EC50 [2] of 5260 ± 10 nM, an EC90 [2] of 6790 ± 90 nM and an EC50 [3] of over 20000 nM. For the same compound, the EC90 [3] was over 20000 nM, the EC50 (L6 rat myoblast cells) was over 130000 nM and the “BBB permeation (in words)” value ([4]; according to the limits of Di et al., low Pe < 1.89, uncertain 5.16 > Pe 10^−6 cm s^−1 > 1.89) was “low BBB permeation”. The Papp [4] was 1.6 ×10⁻⁶ cm/s and the “CNS Prediction” value [4] was “CNS-”.
For `CN1C(C(=O)Nc2ccccn2)=C(O)c2ccccc2S1(=O)=O` [Piroxicam, reference compound], the Papp [4] was 1.7 ± 0.03 ×10⁻⁶ cm/s.
For `CC1CS(=O)(=O)CCN1/N=C/c1ccc([N+](=O)[O-])o1` (stereo not shown) [nifurtimox], the EC50 [5] is listed as about 2000 nM and the EC50 [6] is listed as about 2000 nM.
